Reference: paper PMC6986439, “Sultiame pharmacokinetic profile in plasma and erythrocytes after single oral doses: A pilot study in healthy volunteers” (Pharmacology Research & Perspectives, 2020)
Values joined by “and” are separate entries in the source; they are usually repeats but may differ in a detail not shown here. Equal values may be shown once. Read-outs that look alike come from different tables or passages of the source.

Key:
[1] = Population PK compartmental analysis (two-compartment model with saturable ligand to receptor binding); type: in vivo, human
Experimental: A population PK analysis was also performed using a nonlinear mixed‐effect modeling approach (NONMEM version 7.4, ICON Development Solutions, Hanover MD, USA). […] The model was expressed in terms of differential equations and first‐order rate constants of absorption (ka), elimination (ke), association with (kon) and dissociation from (koff) receptors, maximal binding capacity (Btot), apparent central volume of distribution (Vc/F), and erythrocytes’ volume of distribution (Very). Note that Very actually encompasses the volume of all types of cells containing receptors, assumed to tally with the sampled erythrocytes. Plasma protein binding was assumed constant over the whole range of observed concentrations. Renal extraction fraction (Qren) was added to characterize urine excretion with an additional compartment for urine data. Values of kon and koff characterized in vitro at different temperatures were used as initial estimates and the value of kon to 2018 µM^−1 h^−1 at 37°C fixed in the in vivo model. F was not evaluated, making the model estimate apparent values for Vc/F and CL/F. The first‐order elimination rate constant from the central compartment was calculated as ke = (CL/F)/(Vc/F). The first value below the LLOQ was equaled to LLOQ/2 and subsequent nonquantifiable values were discarded (M6 method).12 Details concerning differential equations and model building steps and adjustment are available in Supplemental material.
Figure 1 Compartmental model accounting for nonlinearity of distribution. Aa, amount of sultiame at the absorption site; Ap, amount of sultiame in plasma and central compartment; Vc, central volume of distribution; Aery, amount of sultiame in the cells, assumed to be bound to receptors; Very, cellular volume of distribution; ka, absorption rate constant; ke, elimination rate constant; kon, constant of association onto receptors binding sites; koff, constant of dissociation from the binding site; Bbound, amount of occupied receptors, assumed equal to Aery; Bfree, amount of free binding sites; Btot, sultiame maximal binding capacity (mg); Qren, renal fraction of the elimination rate; Foral, oral bioavailability, assumed equal to 1
A stepwise procedure was used to identify the model that best fitted the data, comparing two‐, three‐, and four‐compartmental models (peripheral or separate intracellular compartments for free and bound sultiame), and other nonlinear models (Bmax sigmoid model). Exponential errors were used for the description of between‐subject variability (BSV) of PK parameters. Proportional, additive, and mixed error models were compared to describe the residual variability. The stability and internal validity of the final model were assessed by means of standard procedures, detailed in Supplemental material. Covariates were not analyzed due to the limited number of subjects included.
Our population PK analysis used a non-linear mixed effect two-compartment model with first-order absorption incorporating a saturable ligand to receptor binding. We fitted it to our data with the NONMEM software (version 7.4, ICON Development Solutions, Hanover MD, USA), using the ADVAN13 subroutine.
Notice that Aery simultaneously expresses the amount of binding sites occupied by sultiame (Bbound). Thus, the amount of free binding sites corresponds to Bfree = (Btot – Aery), and the model only needs the parameter Btot to characterize the size of the saturable compartment associated to receptor binding (in mg of sultiame). The values of kon and koff characterized in vitro at 37°C were used in the in vivo model as initial estimates, and the kon was fixed to 2018 µM^-1· h^-1.
The model was fitted to the data using first order conditional estimation (FOCE) to obtain values for the eight model parameters listed above. […]

erythrocytes = assay: In vitro spiking experiment: sultiame exchanges between plasma and erythrocytes; type: in vitro ADME, human
Experimental: A spiking experiment was performed to better characterize sultiame exchanges between plasma and erythrocytes. The influx into cells was investigated through spiking fresh human whole blood on EDTA at different target concentrations (1, 5, 10, 20, 40, and 80 mg/L) and different temperatures (4, 21, and 37°C), followed by sampling at 0, 2, 4, 6, 8, 10, 15, 30, 60, 120, and 180 min. The efflux was investigated through incubating whole blood for 1 h at 2 concentrations (10 and 40 mg/L) at 37°C, centrifugating and briefly washing the erythrocytes with NaCl 0.9%, and letting them equilibrate with fresh plasma while drawing samples at 0, 2, 4, 6, 8, 10, 15, 30, 60, 120, 180 minutes, and 24 hours.
In addition, competition studies were performed with two other antiepileptic agents known for their affinity for CA (zonisamide and topiramate), added at equimolar concentration to 20 mg/L of sultiame. Similar ranges of inhibition constants for CA II were reported in the literature for these three substances.13 Samples (1 mL) were drawn before and at 2, 4, 6, 8, 10, 15, 20, 30, 45, 60, and 120 min after addition of the competitor. Sultiame, zonisamide, and topiramate concentrations were then analyzed. All samples were centrifuged at 18 620 g for 1 minutes at 4°C. Plasma, erythrocyte, and urine fractions were stored separately at − 80°C prior to analysis for a maximum of 9 months. For analysis, plasma and hemolyzed erythrocytes samples were subjected to protein precipitation with MeOH containing the internal‐standard sultiame D4 and quantified with the previously described HPLC‐MS/MS method, using matrix‐matched calibration and quality controls. The sultiame concentrations determined in erythrocytes were corrected for the 10% interstitial plasma remnant in the erythrocyte fraction after centrifugation.14

[2] = Safety and tolerability assessments in healthy volunteers; type: in vivo, human
Experimental: All adverse events were recorded with an evaluation of their severity and imputability to the study drug. Each volunteer received a full medical examination at screening and at the end of the study. Visual analogue scales (VAS) on paper support recorded the intensity of 12 potential symptoms (abdominal pain, appetite, nausea, taste of sparkling water, fatigue, headache, dyspnea, dizziness, paresthesia, difficulty in concentration, irritability, and depression) predrug (0 hour) at 0.5, 1, 2, 4, 6, 8, 10, and 24 hours postdose. Vital signs (supine blood pressure, heart rate, body temperature, and respiratory frequency) were measured predose and at 1, 2, 4, 6, 8, 10, and 24 hours postdose. Laboratory parameters, drug screen, and urinalysis were performed at screening and at study end.

[3] = set-up: method as in earlier work; settings: manufacturer's information ref 8; cited from earlier work
[4] = population estimate of final model
[5] = 37 °C, deduced using Arrhenius' law
[6] = single oral doses 50, 100, 200 mg

**Q.** With NS(=O)(=O)c1ccc(N2CCCCS2(=O)=O)cc1 [Sultiame] as the molecule, how does the Btot ([1]; bootstrap evaluation, median) read?
**A.** Its Btot is 111 mg.

**Q.** What about the QRen ([1]; bootstrap evaluation, median) of the same molecule?
**A.** The QRen was 28.8%.

**Q.** What about the Vc ([1]; bootstrap evaluation, median) of the same molecule?
**A.** Its Vc is 64.8 L.

**Q.** And the Very ([1]; bootstrap evaluation, median)?
**A.** The Very was 3.27 L.

**Q.** What about the ka ([1]; bootstrap evaluation, median) of the same molecule?
**A.** The ka was 1.88 h⁻¹.

**Q.** What about the koff ([1]; bootstrap evaluation, median) of the same molecule?
**A.** The koff was 2.244 s⁻¹.

**Q.** And the kon ([1]; bootstrap evaluation, median, fixed)?
**A.** Its kon is 560600 M⁻¹ s⁻¹.

**Q.** What about the Kd ([1]; final population model, read-out: estimated kD of final model (koff/kon)) of the same molecule?
**A.** The Kd was 4 µM.

**Q.** What about the Vd ([1]; male, human, erythrocytes, oral, population estimate of final model, read-out: Very, cell (erythrocyte compartment) volume of distribution) of the same molecule?
**A.** Its Vd is 3.3 L.

**Q.** What about the Vd ([1]; male, human, plasma, oral, population estimate of final model, read-out: Vc, central volume of distribution) of the same molecule?
**A.** Its Vd is 64.8 L.

**Q.** And the clearance ([1]; male, human, plasma, oral, bootstrap evaluation, median of 2000 replicates, read-out: CLplasma (converted))?
**A.** Its clearance is 166 mL/min.

**Q.** And the “kon, association constant” value ([1]; not estimated but fixed in the in vivo model to the in vitro value at 37°C)?
**A.** Its value is 560600 M⁻¹ s⁻¹.

**Q.** What about the “Btot, maximal binding capacity” value [1, 4] of the same molecule?
**A.** The value was 111 mg.

**Q.** And the “QRen, fraction eliminated by renal route” value [1, 4]?
**A.** Its value is 28.8%.

**Q.** And the “Very, cell (erythrocyte compartment) volume of distribution” value [1, 4]?
**A.** Its value is 3.27 L.

**Q.** And the “ka, constant of absorption” value [1, 4]?
**A.** Its value is 1.88 h⁻¹.

**Q.** And the “koff, dissociation constant” value [1, 4]?
**A.** Its value is 2.244 s⁻¹.

**Q.** What about the “CLplasma, apparent plasma clearance (CL/F)” value ([1]; population estimate of final model, oral 50, 100, 200 mg) of the same molecule?
**A.** The value was 10.0 L/h and 9.95 L/h.

**Q.** And the koff (erythrocytes; [5])?
**A.** Its koff is 0.0486 s⁻¹.

**Q.** And the kon (erythrocytes; [5])?
**A.** The kon was 560600 M⁻¹ s⁻¹.

**Q.** What about the erythrocyte/plasma ratio (erythrocytes; concentrations of 10 mg/L or less) of the same molecule?
**A.** The erythrocyte/plasma ratio was 800.

**Q.** What about the erythrocyte/plasma ratio (erythrocytes; concentrations of 20 mg/L and above) of the same molecule?
**A.** The erythrocyte/plasma ratio was “less than 30”.

**Q.** And the “efflux from incubated erythrocytes into blank plasma” value (erythrocytes; erythrocytes incubated 1 h at 10 and 40 mg/L, 37°C, data not shown)?
**A.** Its value is “only minute amounts”.

**Q.** What about the “in vitro binding capacity” value (erythrocytes; in vitro evaluation) of the same molecule?
**A.** Its value is “exceeding 20 mg per liter of whole blood”.

**Q.** What about the “whole blood concentration at which saturation of erythrocytes occurs” value (erythrocytes; in vitro spiking) of the same molecule?
**A.** The value was ~20 mg/L.

**Q.** What about the “time to steady state of erythrocyte/plasma ratio” value (erythrocytes; spiked fresh human whole blood) of the same molecule?
**A.** The value was “about 10 minutes”.

**Q.** What about the “transient facial and limb paresthesia” value ([2]; after intake of the highest dose of 200 mg, four subjects) of the same molecule?
**A.** The value was “reported by three subjects”.

**Q.** And the “gastrointestinal and central nervous system tolerance using VAS” value [2, 6]?
**A.** Its value is “limited impact”.

**Q.** And the “symptom most frequently reported” value [2, 6]?
**A.** The value was “Fatigue”.

**Q.** What about the “severe or serious adverse events” value ([2]; single oral doses 50, 100, 200 mg, four subjects) of the same molecule?
**A.** The value was “No severe or serious adverse events were reported”.

**Q.** What about the “Plasma‐free fraction” value [3] of the same molecule?
**A.** Its value is 71%.
